Holding throughout (format): cell-based
Test [1] concerns the target T1, KCNQ2 channels and KCNQ3 channels (Homo sapiens, UniProt O43525+O43526).
T1 construct: expressed in transfected cells; host or cells: CHO cells (Chinese hamster ovary cells)
In words: hyperpolarisation assay format, voltage-sensitive fluorescent dye, CHO cells expressing KCNQ channels. The conditions noted are these: retigabine 30 μM, ΔF/F, control cells subtracted, FIG. 2. Here is the method:
FIG. 2: Effect of retigabine on the membrane potential of cells expressing KCNQ channels in a hyperpolarisation assay format. The time response of the fluorescence intensity in CHO cells expressing KCNQ channels before and after the application (arrow) of a known KCNQ channel opener (retigabine, 30 μM) is depicted.
The cells were seeded into assay plates and loaded with the dye in exactly the same way as described in Example 1. The measurements were carried out by a Fluostar or Polarstar fluorescence reader of the company BMG or the FlexStation of the company Molecular Devices. It was excited at a wavelength of 525 nm and detected at a wavelength of 560 nm. After incubation with the dye, the base line was monitored for 5 min. Then either 50 up ES buffer (control) or 50 μl of the KCNQ agonist retigabine (30 μM) were added and the fluorescence was monitored in an appropriate reader for 7.5 min.
In FIG. 2 the time response of the fluorescence intensity of CHO cells expressing KCNQ channels before and after the application (arrow) of the known KCNQ channel opener (retigabine, 30 μM) is depicted. The percental change in the fluorescence intensity (ΔF/F) based on the averaged fluorescence intensity before the application of retigabine is depicted. The course of the fluorescence of the control cells (application of buffer) was subtracted from the retigabine-induced fluorescence signal.

Test [2] addresses T1, KCNQ2 channels and KCNQ3 channels. In words: depolarisation assay format, voltage-sensitive fluorescent dye, CHO cells expressing KCNQ channels. The conditions noted are these: saturating concentration of XE991 (60 μM), ΔF/F, control cells subtracted, FIG. 1. The procedure: FIG. 1: Effect of XE991 on the membrane potential of cells expressing KCNQ channels in a depolarisation assay format. The time response of the fluorescence intensity of CHO cells expressing KCNQ channels before and after the application (arrow) of a known KCNQ channel blocker (XE991, 60 μM) is depicted.
CHO cells (Chinese hamster ovary cells) expressing KCNQ2 channels and KCNQ3 channels were adherently cultivated in a nutrient medium [Minimum Essential Medium (MEM), α medium 22571 1×liquid (Invitrogen), 10% Fetal Calf Serum (FCS) (Gibco, heat inactivated), including selection antibiotics] at 37° C., 5% CO2 and 95% air humidity in cell culture bottles. […] After incubation with the dye, either 50 μl ES (control) or 50 μl of the KCNQ channel blocker XE991 in independent wells in a saturating concentration (final concentration 60 μM) were added and incubated for […] with concurrent monitoring of the fluorescence in the reader. The measurements were carried out by a Fluostar or Polarstar fluorescence reader of the company BMG or the FlexStation of the company Molecular Devices. It was excited at a wavelength of 525 nm and detected at a wavelength of 560 nm.
In FIG. 1 the time response of the fluorescence intensity of CHO cells expressing KCNQ channels before and after the application (arrow) of a known KCNQ channel blocker (XE991) is depicted. […]

For test [3] the target is unchanged. The experiment in a line: ion jump assay format for searching for potassium channel blockers (potassium injection to extracellular medium). The settings on record: KCl final concentration 91.8 mM, FIG. 3. The procedure: FIG. 3: Influence of XE991 on the fluorescence response after potassium injection to the extracellular medium in a ion jump assay format for searching for potassium channel blockers. The time response of the fluorescence intensity of CHO cells expressing the KCNQ channels before and after the application (arrow) of […] potassium chloride is depicted.
The seeding of KCNQ-expressing cells in assay plates, the loading with the dye and the measurement devices to be used as well as the wavelengths to be set are in accordance with Example 1. […] Then the base line was monitored in the fluorescence reader for 3-4 min and the fluorescence values were measured for 10 min after the injection of 15 μl of a KCl solution (final concentration 91.8 mM) in each cavity of the plate.
In FIG. 3 the time response of the fluorescence intensity of CHO cells expressing the KCNQ channels before and after the application (arrow) of 91.8 mM potassium chloride is depicted. The fluorescence responses of the cells in the absence (Δ) and presence (▪) of the known KCNQ channel blocker XE991 (60 μM) are shown. The percental change in the fluorescence intensity (ΔF/F) based on the averaged fluorescence intensity before the potassium application is depicted.

The record followed here is patent US20080227819A1, “Method for identifying the agonistic activity of a target compound on a potassium channel” (Gruenenthal GmbH, priority 2007, published 2008).

T1 sequence (O43525 whole entry): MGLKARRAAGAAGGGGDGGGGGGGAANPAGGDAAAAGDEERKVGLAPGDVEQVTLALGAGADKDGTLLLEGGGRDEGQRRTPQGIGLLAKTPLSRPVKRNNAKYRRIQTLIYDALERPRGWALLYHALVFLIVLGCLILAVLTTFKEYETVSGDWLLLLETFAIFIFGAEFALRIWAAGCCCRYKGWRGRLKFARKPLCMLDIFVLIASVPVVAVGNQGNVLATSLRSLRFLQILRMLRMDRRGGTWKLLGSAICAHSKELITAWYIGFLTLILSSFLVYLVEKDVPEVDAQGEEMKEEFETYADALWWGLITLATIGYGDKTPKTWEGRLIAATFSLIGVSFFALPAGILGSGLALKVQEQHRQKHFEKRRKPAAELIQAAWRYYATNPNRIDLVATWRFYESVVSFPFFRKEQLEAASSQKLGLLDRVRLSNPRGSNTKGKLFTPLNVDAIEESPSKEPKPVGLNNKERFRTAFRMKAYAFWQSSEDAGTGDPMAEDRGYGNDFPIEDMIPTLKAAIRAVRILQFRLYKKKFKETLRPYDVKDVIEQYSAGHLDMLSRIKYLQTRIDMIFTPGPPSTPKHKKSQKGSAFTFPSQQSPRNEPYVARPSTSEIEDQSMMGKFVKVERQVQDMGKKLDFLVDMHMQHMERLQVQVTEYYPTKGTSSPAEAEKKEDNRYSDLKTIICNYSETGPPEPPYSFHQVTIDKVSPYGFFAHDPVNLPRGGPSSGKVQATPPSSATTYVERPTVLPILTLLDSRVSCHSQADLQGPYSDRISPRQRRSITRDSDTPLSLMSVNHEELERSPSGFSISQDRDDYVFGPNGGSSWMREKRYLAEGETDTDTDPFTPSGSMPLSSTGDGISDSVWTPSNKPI
T1 sequence (O43526 whole entry): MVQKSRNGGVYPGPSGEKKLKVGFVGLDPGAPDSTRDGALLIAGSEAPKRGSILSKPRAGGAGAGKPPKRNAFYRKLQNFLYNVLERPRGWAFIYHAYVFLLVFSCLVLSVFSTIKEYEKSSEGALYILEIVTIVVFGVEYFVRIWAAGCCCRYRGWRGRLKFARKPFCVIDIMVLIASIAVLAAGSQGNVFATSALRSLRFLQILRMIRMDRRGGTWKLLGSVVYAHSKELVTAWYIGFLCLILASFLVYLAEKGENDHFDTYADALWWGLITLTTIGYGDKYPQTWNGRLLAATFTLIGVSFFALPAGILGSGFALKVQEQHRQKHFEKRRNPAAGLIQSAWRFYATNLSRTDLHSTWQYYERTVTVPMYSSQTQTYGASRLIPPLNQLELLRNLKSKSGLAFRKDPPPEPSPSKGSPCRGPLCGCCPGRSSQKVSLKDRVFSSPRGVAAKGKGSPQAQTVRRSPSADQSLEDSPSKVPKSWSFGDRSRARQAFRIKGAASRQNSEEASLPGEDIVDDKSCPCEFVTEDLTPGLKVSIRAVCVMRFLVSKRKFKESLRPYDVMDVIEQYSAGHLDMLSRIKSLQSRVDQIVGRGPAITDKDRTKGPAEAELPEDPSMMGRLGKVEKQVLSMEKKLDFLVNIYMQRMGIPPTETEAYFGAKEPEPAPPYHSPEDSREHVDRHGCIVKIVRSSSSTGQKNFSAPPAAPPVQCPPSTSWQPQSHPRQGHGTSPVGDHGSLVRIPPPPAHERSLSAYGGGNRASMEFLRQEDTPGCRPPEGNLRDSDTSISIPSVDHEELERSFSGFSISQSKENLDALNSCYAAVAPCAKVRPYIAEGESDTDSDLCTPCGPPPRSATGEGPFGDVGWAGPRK

For the compound `CCOC(=O)Nc1ccc(NCc2ccc(F)cc2)cc1N` [retigabine], the “decrease in the fluorescence intensity after application of retigabine” value in test [1] is 35-40%.

In the case of `O=C1c2ccccc2C(Cc2ccncc2)(Cc2ccncc2)c2ccccc21` [XE991], the “increase in the fluorescence intensity after application of the KCNQ channel blocker” value in test [2] is “about 55%”. In addition, the “difference of the amplitudes of the fluorescence responses in the presence and in the absence of a KCNQ channel blocker (dynamic range of the assay)” value in test [3] (XE991 60 μM vs control cells) is “about 80%”. Besides, the “fluorescence response after the potassium application in the presence of the blocker” value in test [3] (saturating concentration of XE991 (60 μM), 30 min, control cells show increase by about 80%) is on record as “no increase in the fluorescence”.
